From ChEMBL document CHEMBL1201862, “PubChem BioAssay data set” (2004)
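Briefly, cells in 96-well plates were exposed to five compound concentrations for 48 h, and endpoints were estimated by linear interpolation. Abbreviation: GI50, concentration required for 50% inhibition of growth.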 Calls of active or inactive are those of the source. No stated cut-off is given here; in the data, active = GI50 up to about 1.1 µM and inactive = higher.

Experiments:
Assay in all cases: NCI-60 cell line screen, 48 h
OVCAR-3 = tested on: OVCAR-3
NCI/ADR-RES = tested on: NCI/ADR-RES
HT-29 = tested on: HT-29
NCI-H23 = tested on: NCI-H23
SW-620 = tested on: SW-620
T47D = tested on: T47D
NCI-H226 = tested on: NCI-H226
786-0 = tested on: 786-0
LOX IMVI = tested on: LOX IMVI
SR = tested on: SR
UACC-62 = tested on: UACC-62
HCT-15 = tested on: HCT-15
PC-3 = tested on: PC-3
MDA-MB-231 = tested on: MDA-MB-231
M14 = tested on: M14
MCF7 = tested on: MCF7
MOLT-4 = tested on: MOLT-4
HL-60 = tested on: HL-60
HCC 2998 = tested on: HCC 2998
SK-OV-3 = tested on: SK-OV-3
RPMI-8226 = tested on: RPMI-8226
A498 = tested on: A498
SK-MEL-5 = tested on: SK-MEL-5
SN12C = tested on: SN12C
BT-549 = tested on: BT-549
MDA-MB-435 = tested on: MDA-MB-435
DU-145 = tested on: DU-145
UO-31 = tested on: UO-31
SF-539 = tested on: SF-539
HOP-62 = tested on: HOP-62
NCI-H522 = tested on: NCI-H522
KM12 = tested on: KM12
SF-295 = tested on: SF-295
HOP-92 = tested on: HOP-92
COLO 205 = tested on: COLO 205
CCRF-CEM = tested on: CCRF-CEM
MDA-N = tested on: MDA-N
U-251 = tested on: U-251
ACHN = tested on: ACHN
UACC-257 = tested on: UACC-257
OVCAR-5 = tested on: OVCAR-5
TK-10 = tested on: TK-10
NCI-H460 = tested on: NCI-H460
OVCAR-8 = tested on: OVCAR-8
SK-MEL-28 = tested on: SK-MEL-28
EKVX = tested on: EKVX
HCT-116 = tested on: HCT-116
IGROV-1 = tested on: IGROV-1
OVCAR-4 = tested on: OVCAR-4
A549 = tested on: A549
SK-MEL-2 = tested on: SK-MEL-2
CAKI-1 = tested on: CAKI-1
SNB-75 = tested on: SNB-75
Hs-578T = tested on: Hs-578T
SNB-19 = tested on: SNB-19
SF-268 = tested on: SF-268
Malme-3M = tested on: Malme-3M
RXF 393 = tested on: RXF 393
K562 = tested on: K562

## CSc1nc(Br)nc2ncn(C3CC(Oc4ccc(C)cc4)C(COc4ccc(C)cc4)O3)c12 (stereo not given)
OVCAR-3
  GI50: > 100 µM (inactive)
NCI/ADR-RES
  GI50: > 100 µM (inactive)
HT-29
  GI50: > 100 µM (inactive)
NCI-H23
  GI50: > 100 µM (inactive)
SW-620
  GI50: > 100 µM (inactive)
T47D
  GI50: > 100 µM (inactive)
NCI-H226
  GI50: > 100 µM (inactive)
786-0
  GI50: > 100 µM (inactive)
LOX IMVI
  GI50: > 100 µM (inactive)
SR
  GI50: 3.72 µM (inactive)
UACC-62
  GI50: > 100 µM (inactive)
HCT-15
  GI50: > 100 µM
PC-3
  GI50: > 100 µM (inactive)
MDA-MB-231
  GI50: > 100 µM (inactive)
M14
  GI50: > 100 µM (inactive)
MCF7
  GI50: > 100 µM (inactive)
MOLT-4
  GI50: > 100 µM (inactive)
HL-60
  GI50: > 100 µM (inactive)
HCC 2998
  GI50: > 100 µM (inactive)
SK-OV-3
  GI50: > 100 µM (inactive)
RPMI-8226
  GI50: > 100 µM (inactive)
A498
  GI50: > 100 µM (inactive)
SK-MEL-5
  GI50: > 100 µM (inactive)
SN12C
  GI50: > 100 µM (inactive)
BT-549
  GI50: > 100 µM (inactive)
MDA-MB-435
  GI50: > 100 µM (inactive)
DU-145
  GI50: > 100 µM (inactive)
UO-31
  GI50: 17.7 µM (inactive)
SF-539
  GI50: 28.9 µM (inactive)
HOP-62
  GI50: > 100 µM (inactive)
NCI-H522
  GI50: > 100 µM (inactive)
KM12
  GI50: > 100 µM (inactive)
SF-295
  GI50: > 100 µM (inactive)
HOP-92
  GI50: 34 µM (inactive)
COLO 205
  GI50: > 100 µM (inactive)
CCRF-CEM
  GI50: > 100 µM (inactive)
MDA-N
  GI50: > 100 µM (inactive)
U-251
  GI50: > 100 µM (inactive)
ACHN
  GI50: 28.2 µM (inactive)
UACC-257
  GI50: > 100 µM (inactive)
OVCAR-5
  GI50: > 100 µM (inactive)
TK-10
  GI50: > 100 µM (inactive)
NCI-H460
  GI50: > 100 µM (inactive)
OVCAR-8
  GI50: 80.7 µM (inactive)
SK-MEL-28
  GI50: > 100 µM (inactive)
EKVX
  GI50: > 100 µM (inactive)
HCT-116
  GI50: > 100 µM (inactive)
IGROV-1
  GI50: > 100 µM (inactive)
OVCAR-4
  GI50: > 100 µM (inactive)
A549
  GI50: > 100 µM (inactive)
SK-MEL-2
  GI50: > 100 µM (inactive)
CAKI-1
  GI50: 66.2 µM (inactive)
SNB-75
  GI50: 21.9 µM (inactive)
Hs-578T
  GI50: 25.1 µM (inactive)
SNB-19
  GI50: > 100 µM (inactive)
SF-268
  GI50: > 100 µM (inactive)
Malme-3M
  GI50: > 100 µM (inactive)

## COC(=O)[C@@H]1COC(C(C)(C)C)N1C(=O)C(c1ccccc1)c1ccccc1 (stereo not given in full)
OVCAR-3
  GI50: 39.2 µM (inactive)
NCI/ADR-RES
  GI50: 34 µM (inactive)
HT-29
  GI50: 55.8 µM (inactive)
NCI-H23
  GI50: 81.7 µM (inactive)
SW-620
  GI50: 43.8 µM (inactive)
T47D
  GI50: 62.8 µM (inactive)
NCI-H226
  GI50: 49.7 µM (inactive)
786-0
  GI50: 46.2 µM (inactive)
LOX IMVI
  GI50: 22.6 µM (inactive)
SR
  GI50: 0.446 µM (active)
UACC-62
  GI50: 44.1 µM (inactive)
HCT-15
  GI50: 35.4 µM
PC-3
  GI50: 24.8 µM (inactive)
MDA-MB-231
  GI50: 45.2 µM (inactive)
M14
  GI50: 52 µM (inactive)
MCF7
  GI50: 64.3 µM (inactive)
MOLT-4
  GI50: 38.7 µM (inactive)
HL-60
  GI50: 45.3 µM (inactive)
HCC 2998
  GI50: 48.3 µM (inactive)
SK-OV-3
  GI50: 31.4 µM (inactive)
A498
  GI50: > 100 µM (inactive)
SK-MEL-5
  GI50: 36.8 µM (inactive)
SN12C
  GI50: 32.1 µM (inactive)
BT-549
  GI50: > 100 µM (inactive)
MDA-MB-435
  GI50: 36.7 µM (inactive)
DU-145
  GI50: > 100 µM (inactive)
RXF 393
  GI50: 13.2 µM (inactive)
UO-31
  GI50: 52.5 µM (inactive)
SF-539
  GI50: 28.7 µM (inactive)
HOP-62
  GI50: > 100 µM (inactive)
NCI-H522
  GI50: 59 µM (inactive)
KM12
  GI50: 43.6 µM (inactive)
SF-295
  GI50: 60.1 µM (inactive)
HOP-92
  GI50: 37 µM (inactive)
COLO 205
  GI50: 61.7 µM (inactive)
CCRF-CEM
  GI50: 26.7 µM (inactive)
MDA-N
  GI50: 26 µM (inactive)
U-251
  GI50: 42 µM (inactive)
ACHN
  GI50: 69.3 µM (inactive)
UACC-257
  GI50: 33.6 µM (inactive)
OVCAR-5
  GI50: > 100 µM (inactive)
TK-10
  GI50: 50.4 µM (inactive)
NCI-H460
  GI50: 40.3 µM (inactive)
K562
  GI50: 19.5 µM (inactive)
OVCAR-8
  GI50: 44.1 µM (inactive)
SK-MEL-28
  GI50: > 100 µM (inactive)
EKVX
  GI50: 55.7 µM (inactive)
HCT-116
  GI50: 41.3 µM (inactive)
IGROV-1
  GI50: 73.1 µM (inactive)
OVCAR-4
  GI50: 43.2 µM (inactive)
A549
  GI50: 65.8 µM (inactive)
SK-MEL-2
  GI50: 90.2 µM (inactive)
CAKI-1
  GI50: > 100 µM (inactive)
SNB-75
  GI50: 32.4 µM (inactive)
Hs-578T
  GI50: 55.5 µM (inactive)
SNB-19
  GI50: 40.9 µM (inactive)
SF-268
  GI50: > 100 µM (inactive)
Malme-3M
  GI50: > 100 µM (inactive)
